Measured values from patent US20110060048A1, “Removing alcohol in vivo through esterification” (priority 2009, published 2011).
Read-outs that look alike come from different tables or passages of the source.

Columns and labels:
[1] = for C2H5OH % Decrease at Equilibrium, Trial 2 / C2H5OH % Decrease at Equilibrium, Trial 3 / C2H5OH % Decrease at Equilibrium, Trial 4 / C2H5OH % Decrease at Equilibrium, Trial 5 / C2H5OH % Decrease at Equilibrium, Average / C2H5OH % Decrease at Equilibrium, Trial 1: equal acetic acid
Experimental: Titrations with potassium permanganate (KMnO4) were later performed after the contents of each beaker received 5 minutes each of vigorous stirring and 25 minutes of inactivity to compare the final amount of ethanol left with the original amount.
In the following we describe the detailed procedure of in vitro experiment to verify the validity of reducing the amount of ethanol by esterification: • 1. Label four 100-mL beakers, 0.4 M, 0.6 M, 0.8 M, and 1.0 M. • 2. Put 17.15 mL of distilled water into each. • 3. Add 0.4 mL of concentrated ethanol to the first beaker, 0.6 mL to the second, 0.8 mL to the third, and 1.0 mL to the fourth. Swivel each beaker gently for 20-30 seconds to ensure mixing. See calculations below for explanation. • 4. Add another 17.15 mL of water to each beaker • 5. […] See calculations below for explanation. • 6. Stir each sample vigorously for five minutes in succession. […] Put on latex gloves before handling potassium permanganate. • 8. Set up two burettes, and fill each with approximately 100 mL of 0.2 M potassium permanganate. This will enable two titrations to be simultaneously done. • 9. Record the initial volume of potassium permanganate present in both burettes. • 10. Place 1.0 M and 0.8 M beakers on hot plate, and turn to power level 3. Heating quickens the titration process. • 11. Slowly drip KMnO4 into beakers while stirring. Make sure that each beaker is consistently titrated with the same burette to ensure that the exact volumes of KMnO4 that each beaker received can be easily calculated. • 12. Potassium permanganate is purple in color. When reacted with ethanol, a brown color (manganese oxide, MnO2) appears. The reaction is as follows:
When potassium permanganate ceases to be converted into manganese oxide, and the purple color stays, the titration is finished. There is no ethanol left in the beaker to react with potassium permanganate. • 13. Remove both beakers from hot plate. Measure the volume of potassium permanganate remaining in each burette. Subtract from the original volumes to find the volume of KMnO4 consumed in each reaction. • 14. Repeat steps 9-13 for the 0.6 M and 0.4 M beakers. • 15. Use stoichiometry to calculate the molar amount of 0.2 M potassium permanganate used in each titration. • 16. Ethanol and potassium permanganate react in a 3:4 molar ratio, according to the equation 3C2H5OH+4KMnO4→3CH3COOH+4MnO2+4KOH+H2O.
Again, use a chain calculation to calculate the molar amount of ethanol remaining in each beaker, then divide by […] to convert to molarity. Compare to the molarity of ethanol originally in each beaker. Calculate % error. • 17. Results (see Table 2)

[2] = eight male volunteers, alcoholic beverage followed by 30 grams of fructose or sucrose, hourly measurements; cited from earlier work

CC(=O)O [acetic acid]
decrease in the amount of ethanol when the system reaches equilibrium ([1]; 0.4-1.0 M ethanol with same volume and concentration of acetic acid): 79-86%
reduction of the ethanol amount ([1]; equal molar number of acetic acid added to the ethanol solution, 5 repeats): 80-90%
C2H5OH % Decrease at Equilibrium, Trial 2 ([1]; initial C2H5OH 0.4 M): 78.1%
C2H5OH % Decrease at Equilibrium, Trial 3 ([1]; initial C2H5OH 0.4 M): 81.5%
C2H5OH % Decrease at Equilibrium, Trial 4 ([1]; initial C2H5OH 0.4 M): 81.2%
C2H5OH % Decrease at Equilibrium, Trial 5 ([1]; initial C2H5OH 0.4 M): 80.0%
C2H5OH % Decrease at Equilibrium, Average ([1]; initial C2H5OH 0.4 M, average of trials): 80.2%
C2H5OH % Decrease at Equilibrium, Trial 2 ([1]; initial C2H5OH 0.6 M): 82.7%
C2H5OH % Decrease at Equilibrium, Trial 3 ([1]; initial C2H5OH 0.6 M): 83.8%
C2H5OH % Decrease at Equilibrium, Trial 4 ([1]; initial C2H5OH 0.6 M): 83.7%
C2H5OH % Decrease at Equilibrium, Trial 5 ([1]; initial C2H5OH 0.6 M): 82.5%
C2H5OH % Decrease at Equilibrium, Average ([1]; initial C2H5OH 0.6 M, average of trials): 83.2%
C2H5OH % Decrease at Equilibrium, Trial 1 ([1]; initial C2H5OH 0.8 M): 89.1%
C2H5OH % Decrease at Equilibrium, Trial 2 ([1]; initial C2H5OH 0.8 M): 86.2%
C2H5OH % Decrease at Equilibrium, Trial 3 ([1]; initial C2H5OH 0.8 M): 84.7%
C2H5OH % Decrease at Equilibrium, Trial 4 ([1]; initial C2H5OH 0.8 M): 84.6%
C2H5OH % Decrease at Equilibrium, Trial 5 ([1]; initial C2H5OH 0.8 M): 85.5%
C2H5OH % Decrease at Equilibrium, Average ([1]; initial C2H5OH 0.8 M, average of 5 trials): 86.0%
C2H5OH % Decrease at Equilibrium, Trial 1 ([1]; initial C2H5OH 1.0 M): 91.3%
C2H5OH % Decrease at Equilibrium, Trial 2 ([1]; initial C2H5OH 1.0 M): 88.8%
C2H5OH % Decrease at Equilibrium, Trial 3 ([1]; initial C2H5OH 1.0 M): 86.5%
C2H5OH % Decrease at Equilibrium, Trial 4 ([1]; initial C2H5OH 1.0 M): 91.1%
C2H5OH % Decrease at Equilibrium, Trial 5 ([1]; initial C2H5OH 1.0 M): 90.4%
C2H5OH % Decrease at Equilibrium, Average ([1]; initial C2H5OH 1.0 M, average of 5 trials): 89.6%

O=C(CO)[C@@H](O)[C@H](O)[C@H](O)CO [fructose]
percent of ethanol decrease (plateau, on average) [2]: 29%

OC[C@H]1O[C@@](CO)(O[C@H]2O[C@H](CO)[C@@H](O)[C@H](O)[C@H]2O)[C@@H](O)[C@@H]1O [sucrose]
percent of ethanol decrease (plateau, on average) [2]: 29%
